Holding throughout (assay type): functional
One test has as its system Aspergillus sydowii. The test can be described thus: Antimicrobial activity against Aspergillus sydowii MTCC 4335 assessed as growth inhibition after 5 days by broth microdilution method.
The subject of a further test is Aspergillus parasiticus. The test is described as follows: Antimicrobial activity against Aspergillus parasiticus MTCC 2797 assessed as growth inhibition after 5 days by broth microdilution method.
The subject of another test is Aspergillus niger. The test is described as follows: Antimicrobial activity against Aspergillus niger MTCC 404 assessed as growth inhibition after 5 days by broth microdilution method.
The test system of the next test is Pichia kudriavzevii. The test is described as follows: Antimicrobial activity against Pichia kudriavzevii MTCC 231 assessed as growth inhibition after 24 hr by broth microdilution method.
The test system of the next test is Candida albicans. The test can be described thus: Antimicrobial activity against Candida albicans MTCC 3017 assessed as growth inhibition after 24 hr by broth microdilution method.
Another test concerns Enterobacter cloacae. The test is described as follows: Antimicrobial activity against Enterobacter cloacae MTCC 509 assessed as growth inhibition after 24 hr by broth microdilution method.
The test system of the next test is Pseudomonas aeruginosa. The test is described as follows: Antimicrobial activity against Pseudomonas aeruginosa MTCC 424 assessed as growth inhibition after 24 hr by broth microdilution method.
The subject of the next test is Klebsiella pneumoniae. The test can be described thus: Antimicrobial activity against Klebsiella pneumoniae MTCC 109 assessed as growth inhibition after 24 hr by broth microdilution method.
In a further test the test system is Escherichia coli. The test is described as follows: Antimicrobial activity against Escherichia coli MTCC 43 assessed as growth inhibition after 24 hr by broth microdilution method.
The next test has as its system Burkholderia cepacia. The test can be described thus: Antimicrobial activity against Burkholderia cepacia MTCC 438 assessed as growth inhibition after 24 hr by broth microdilution method.
The next test has as its system Micrococcus luteus. The test can be described thus: Antimicrobial activity against Micrococcus luteus MTCC 2470 assessed as growth inhibition after 24 hr by broth microdilution method.
In the next test the test system is Bacillus subtilis. The test is described as follows: Antimicrobial activity against Bacillus subtilis MTCC 121 assessed as growth inhibition after 24 hr by broth microdilution method.
The subject of another test is Staphylococcus aureus. The test is described as follows: Antimicrobial activity against Staphylococcus aureus MTCC 3160 assessed as growth inhibition after 24 hr by broth microdilution method.
Test [1] relates to Radical scavenging activity. The test is described as follows: Antioxidant activity assessed as inhibition of DPPH radical formation at 2 mg/ml after 30 min by spectrophotometric analysis.
A further test deals with Trichophyton rubrum. The test can be described thus: Antimicrobial activity against Trichophyton rubrum MTCC 296 assessed as growth inhibition after 5 days by broth microdilution method.

Structures are written as SMILES. Active and inactive are the calls of the source. The calls are words filed in the database; no cut-off is given here.

Regarding `NC(=S)N/N=C/C=C/c1ccc2c(c1)OCO2`, the MIC result in the test with Aspergillus sydowii, with Aspergillus parasiticus, in the test on Aspergillus niger, in the test with Pichia kudriavzevii, in the test on Candida albicans and in the test on Enterobacter cloacae was “inactive” in each case. Also, the MIC result in the test with Pseudomonas aeruginosa, in the test on Klebsiella pneumoniae, in the test with Escherichia coli, in the test with Burkholderia cepacia, in the test on Micrococcus luteus and in the test on Bacillus subtilis was “inactive” throughout. Besides, the MIC entry in the test with Staphylococcus aureus and in the test with Trichophyton rubrum was “inactive” each time. For the same molecule, the inhibition in test [1] was determined as 10.7%.

For the origin of these results see ChEMBL document CHEMBL3046948, “Synthesis and SAR investigation of natural phenylpropene-derived methoxylated cinnamaldehydes and their novel Schiff bases as potent antimicrobial and antioxidant agents” (2013).
